Here are results for two molecules from US20170138946A1, “BIOMARKERS FOR RESPONSE TO EZH2 INHIBITORS” (Memorial Sloan-Kettering Cancer Center, priority 2014, published 2017).

Assay [1] relates to BAP1-mutant cells. Briefly: Matrigel invasion assay with GSK126. Type of assay: cell-based, human. The settings on record: GSK126 0-2 μM for 7 days. As for the experimental part: Mesothelioma cells (MSTO-211H, H2373, H226 and H2452) were seeded in T75 flasks (100,000 cells). 12 hours later the plated cells were treated with GSK126 (0-2 μM) (Chemitek) and then left to proliferate for 7 days. 250,000 treated cells were then placed on the top of a Matrigel invasion chamber (BD Biosciences, cat no. 354480) in serum free media while the lower chamber contained media with serum. 22 hours later the cells on the bottom of the membrane were stained with crystal violet and quantitated with ImageJ.

Assay [2] has as its system E-Cadherin expression in H226. The experiment in a line: E-Cadherin expression after GSK126 treatment. It counts as cell-based, human. The note with it: cell line H226. The source says: (§1) FIG. 20A-D. BAP1 mutant cell lines are most sensitive to EZH2 inhibition. (a) Meso10 cell line overexpressing EZH2 increasingly proliferated after injection into the flank of NOD-SCID mice. (b) EZH2 was overexpressed in MSTO-211H and Meso10 cell lines. […] (c) BAP1-mutant cells became less invasive when treated with the EZH2 inhibitor GSK126. (d) E-Cadherin expression increased in the cell line H226 following treatment with GSK126.

Assay [3] concerns BAP1-mutant mesothelioma cells (H2452 xenografts). The experiment in a line: H2452 xenografts in NOD-SCID mice treated with GSK126. It counts as in vivo. How it is done: FIG. 21A-C. BAP1-mutant mesothelioma cell lines and xenograft models are sensitive to EZH2 inhibition. (a) Tumor volume of H2452 xenografts treated daily with GSK126 at 150 mg/kg or vehicle (n=10 mice per group). 5 mice from each group were euthanized following 16 days of treatment to assess H3K27me3 depletion. The remaining mice were treated for the remainder of the trial. (b) Histone ELISA and Western blot analysis of H3K27me3 levels in tumors from in vivo treated mice after 16 days treatment. (c) H&E staining, Ki67 staining and TUNEL staining of tumors extracted from vehicle treated and GSK126 treated mice, 10× magnification.
Next, whether EZH2 inhibition might inhibit the survival of BAP1-mutant mesothelioma cell lines was assessed. EZH2 silencing induced apoptosis in BAP1-mutant cell lines, whereas wild-type cell lines continued to proliferate (FIGS. 16B,C). EZH2 silencing abrogated in vivo tumor formation of BAP1-mutant but not wild-type cell lines (FIG. 16D). Overexpression of EZH2 in BAP1 wild-type cell lines increased proliferation (FIG. 20A) and sensitivity to EZH2 inhibition (FIG. 20B). […] Next, the impact of EZH2 inhibition in vivo was assessed. […] EZH2 inhibition abrogated pulmonary metastasis in a BAP1-mutant mesothelioma cell line with metastatic potential (FIG. 16G) consistent with a role for BAP1/EZH2 in metastasis (Harbour et al., 2010). EZH2 inhibition reduced invasion and increased E-Cadherin expression in vitro (FIGS. 20C-D). Next, the impact of EZH2 inhibition using the […] GSK126 was assessed. BAP1-mutant mesothelioma cells were injected into the flank of NOD-SCID mice, and then initiated treatment with either vehicle or 150 mg/kg GSK126 after tumor formation.

Assay [4] has as its system Bap1 KO mice. Briefly: Bap1 KO mice treated with EPZ011989 (genetic Bap1 KO trial). It counts as in vivo. The note with it: 500 mg/kg BID orally for 16 days. From the text: FIG. 11A-K. Proliferation induced by Bap1 deletion is rescued by loss of Ezh2. (a) Western blot of H3K27me3 levels in histones purified from bone marrow of Bap1 KO, Ezh2 KO, Bap1/Ezh2 KO and control mice. (b) Representative images of spleens and (c) enumeration of spleen weight from the indicated genotypes of mice, 3 weeks post pIpC. (d) Peripheral white blood cell counts and (e) hematocrit percentages as quantified by a Hemavet. (f) Flow cytometric enumeration of myeloid progenitors (Lin^− c-Kit^+Sca1^−) and (g) Mature myeloid cells (Mac1^+Gr1^+) (h) Cell cycle analyses in myeloid progenitors using Ki67 and DAPI stain (n=3/group) (i) Western blot for H3K27me3 levels in mice (n=5/group) treated with EPZ011989 twice a day at 500 mg/kg for 16 days. (j) Spleen weights and (k) white blood cell counts after treatment. Unless otherwise indicated, […], n=5/Ezh2 KO, n=8/Bap1 KO, and n=11/Bap1/Ezh2 KO, Statistics were calculated with Student t-test; *p<0.05, **p<0.005; ±SEM values reported. Groups of 10 week old NOD-SCID mice were injected subcutaneously in the flank with 6-10×10^6 mesothelioma cell lines (MSTO-211H, Meso10, H226 and H2452) in a 1:1 mixture of matrigel and media. When tumors reached a size of approximately 60-80 mm^3, treatment with either vehicle (0.5% NaCMC+0.1% Tween-80 in water) or EPZ011989 was initiated. Either EPZ011989 or vehicle were given orally BID at a concentration of 500 mg/kg for the duration of the experiment. Tumor volumes were assessed in three dimensions using a caliper. Tumors or lung tissue were extracted following treatment and utilized for Western blotting to assess target inhibition. […] Researchers were not blinded in these experiments.

The subject of assay [5] is BAP1-mutant cell lines. The experiment in a line: 2D Cell Titer Glo viability assay with EPZ011989. Type of assay: cell-based, human. The settings on record: 2 week treatment at 1.25 μM, compared with wild-type cell lines. The source says: (§2) FIG. 16A-H. BAP1-mutant mesothelioma cell lines and xenograft models are sensitive to EZH2 inhibition. (a) Expression of EZH2 transcripts in TCGA mesothelioma patients compared to matched normals. (b) Annexin V assays in BAP1 wild-type and mutant cell lines expressing either empty vector or hairpins targeting EZH2. (c) Quantitation of Annexin V experiments in mesothelioma cell lines (d) Tumor size of Meso10 and H226 cell lines expressing EZH2 hairpins implanted into NOD-SCID mice, n=6/group. (e) 2D Cell Titer Glo viability assays after 2 week treatment with EPZ011989 at 1.25 μM. (f) 3D Cell Titer Glo viability assays after 3 weeks EPZ011989 treatment at 1.25 μM. (g) Tumor size formation from BAP1 mutant (MSTO and Meso10) or (h) wild-type cells (H226 and H2452) implanted into NOD-SCID mice and treated with either vehicle or 500 mg/kg BID EPZ011989. Tumors were measured 3× weekly, n=6/group. Target inhibition was assessed by histone western blots in extracted tumors (shown in respective figures). Lung pathology of H2452 cells with vehicle and EPZ1011989 treatment. Arrow indicates bulk metastasized tumor. Statistics were calculated with Student t-test; *p<0.05, **p<0.005; ±SEM values reported.
Background: Cellular ATP, detected with luciferase, serves as a proxy for viable cell number.

For assay [6], the system named is BAP1-mutant cell lines. Briefly: 3D Cell Titer Glo viability assay with EPZ011989. Type of assay: cell-based, human. The settings on record: 3 weeks treatment at 1.25 μM, compared with wild-type cell lines.
From the text: as §2

In assay [7] the test system is BAP1-mutant tumor. Briefly: Mesothelioma xenografts in NOD-SCID mice treated with EPZ011989, BAP1-mutant tumors. It counts as in vivo. The settings on record: 500 mg/kg BID.
From the text: as §2, with “(g) Tumor size formation from BAP1 mutant (MSTO and Meso10) or (h) wild-type cells (H226 and H2452) implanted into NOD-SCID mice and treated with either vehicle or 500 mg/kg BID EPZ011989.” left out
(§3) Groups of 10 week old NOD-SCID mice were injected subcutaneously in the flank with 6-10×10^6 mesothelioma cell lines (MSTO-211H, Meso10, H226 and H2452) in a 1:1 mixture of matrigel and media. […] Tumor volumes were assessed in three dimensions using a caliper. […]

The test system of assay [8] is wild-type tumors. Briefly: Mesothelioma xenografts in NOD-SCID mice treated with EPZ011989, BAP1 wild-type tumors. It counts as in vivo. The settings on record: 500 mg/kg BID.
From the text: as §2, with “Lung pathology of H2452 cells with vehicle and EPZ1011989 treatment. Arrow indicates bulk metastasized tumor.” left out
as §3

The test system of assay [9] is MSTO-211H and Meso10 cell lines overexpressing EZH2. Briefly: Sensitivity to EPZ011989 of cell lines overexpressing EZH2. It counts as cell-based, human. The note with it: MSTO-211H and Meso10 overexpressing EZH2.
From the text: as §1

Where [10] appears, read: tumors extracted from treated mice, 150 mg/kg.

Turning to `CC[C@H](C)n1cc(C)c2c(C(=O)NCc3c(C)cc(C)[nH]c3=O)cc(-c3ccc(N4CCNCC4)nc3)cc21` [GSK126], in assay [1], the invasion result is recorded as “less invasive”. In addition, the E-Cadherin expression entry in [2] is “increased”. For the same molecule, in assay [3] (150 mg/kg daily, compared to vehicle treated mice), the tumor size entry is “significantly reduced”. In addition, the “H3K27me3 in tumors in vivo” value in assay [3] (150 mg/kg, after 16 days treatment, histone ELISA and Western blot) was “significantly attenuated”. Moreover, in assay [3] (setting [10]), the Ki67 staining result was “reduced” and the TUNEL staining entry is “increased”.
As for `CCN(c1cc(C#CCN2CCOCC2)cc(C(=O)NCc2c(C)cc(C)[nH]c2=O)c1C)[C@H]1CC[C@H](N(C)CCOC)CC1` [EPZ011989], in [4], the “splenomegaly (spleen weights)” value is given as “decreased” and the “white blood cell counts” value was “decreased”. Besides, in [4] (Western blot), the H3K27me3 entry is given as “decreased”. In addition, in [5], the “sensitivity of BAP1-mutant cell lines in 2D culture” value is “more sensitive”. Moreover, the “sensitivity of BAP1-mutant cell lines in 3D culture” value in [6] is “more sensitive”. The BAP1-mutant tumor size entry in assay [7] (compared to vehicle treated mice) is “significantly reduced”. Besides, the pulmonary metastasis result in assay [7] (BAP1-mutant mesothelioma cell line with metastatic potential (H2452)) is on record as “abrogated”. The “response of wild-type tumors (tumor size)” value in assay [8] is “less/not responsive”. For the same molecule, the “sensitivity with EZH2 overexpression” value in assay [9] is listed as “increasingly sensitive”.
